From PubChem BioAssay (NCI)
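Assay format: 96-well plates, 48-hour exposure. GI50 marks 50% less growth. TGI denotes the concentration required for complete inhibition of growth.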

Experiments:
Experiment in all cases: NCI anticancer screen, dose series, 48 h
K-562 leukemia = test system: K-562 leukemia
RXF 393 renal = test system: RXF 393 renal
UACC-62 melanoma = test system: UACC-62 melanoma
SK-MEL-28 melanoma = test system: SK-MEL-28 melanoma
OVCAR-3 ovarian = test system: OVCAR-3 ovarian
HCT-15 colon = test system: HCT-15 colon
IGROV1 ovarian = test system: IGROV1 ovarian
NCI-H23 lung = test system: NCI-H23 lung
SNB-75 CNS = test system: SNB-75 CNS
MOLT-4 leukemia = test system: MOLT-4 leukemia

SMILES | TGI (K-562 leukemia) | TGI (RXF 393 renal) | TGI (UACC-62 melanoma) | TGI (SK-MEL-28 melanoma) | TGI (OVCAR-3 ovarian) | TGI (HCT-15 colon) | TGI (IGROV1 ovarian) | TGI (NCI-H23 lung) | TGI (SNB-75 CNS) | TGI (MOLT-4 leukemia) | GI50 (K-562 leukemia) | GI50 (UACC-62 melanoma) | GI50 (NCI-H23 lung) | GI50 (SK-MEL-28 melanoma) | GI50 (OVCAR-3 ovarian) | GI50 (SNB-75 CNS) | GI50 (MOLT-4 leukemia) | GI50 (IGROV1 ovarian) | GI50 (RXF 393 renal) | GI50 (HCT-15 colon)
CSC(=O)C[C@@]12O[C@@H]([C@@H](C)C3CCC4[C@@H]5C(O)CC6=CC(=O)C=C[C@]6(C)C5CC[C@@]43C)C[C@](C)(O1)C(C)(C)O2 (some centres not stated) | 19.9 µM | 24.4 µM | 27 µM | 32.1 µM | 30.2 µM | 32 µM | 46.2 µM | – | – | – | – | – | – | – | – | – | – | – | – | –
O=C(O)/C=C/c1ccc(Oc2ccccc2C(=O)O)o1 | > 10 µM | – | > 10 µM | > 10 µM | – | > 10 µM | > 10 µM | > 10 µM | > 10 µM | > 10 µM | – | – | – | – | – | – | – | – | – | –
Cc1ccc(/C=C/C(=O)c2ccc(Cl)c(Cl)c2)cc1 | > 100 µM | > 100 µM | > 100 µM | > 100 µM | > 100 µM | – | > 100 µM | > 100 µM | > 100 µM | > 100 µM | – | – | – | – | – | – | – | – | – | –
CCN(CC)CCN(CC)CC.CCN(CC)CCN(CC)CC.[Cu+2].[Cu+2].[O-][Cl+3]([O-])([O-])[O-].[OH3+].[OH3+] | > 100 µM | – | 36.4 µM | 45.5 µM | 55.8 µM | – | 87.9 µM | 77.8 µM | 39.4 µM | > 100 µM | 53.1 µM | 18.3 µM | 31.1 µM | 22.1 µM | 23.9 µM | 23.6 µM | 91.4 µM | 29.4 µM | – | –
CCOC(=O)C12CCCC1(O)N(NC(=O)OC)C(C)=C2C(=O)OC (configuration not stated) | > 100 µM | – | > 100 µM | > 100 µM | > 10 µM | > 100 µM | > 100 µM | > 100 µM | – | > 100 µM | – | – | – | – | – | – | – | – | – | –
C(=N\Nc1ncc(-c2cc3cc4c(cc3o2)OCO4)s1)/c1ccco1 | > 100 µM | 5.13 µM | 14.5 µM | 12.3 µM | – | – | 8.09 µM | 4.22 µM | 11.4 µM | 14.5 µM | 2.1 µM | 3.81 µM | 1.51 µM | 3.42 µM | – | 1.86 µM | 0.946 µM | 2.6 µM | 1.8 µM | –
Cc1cccc(-c2nnc3s/c(=C\c4ccc(N(C)C)cc4)c(=O)n23)c1 | > 100 µM | > 100 µM | > 100 µM | > 100 µM | > 100 µM | – | > 100 µM | > 100 µM | > 100 µM | > 100 µM | – | – | – | – | – | – | – | – | – | –
Cc1ccc(CNc2ccc3nc(CCC4CCCCC4)[nH]c3c2)cc1 | 5.47 µM | 5.38 µM | 3.4 µM | – | 11.4 µM | 6.82 µM | 10.3 µM | 4.88 µM | 5.25 µM | 9.71 µM | 2.1 µM | 1.74 µM | 2.1 µM | – | 3.06 µM | 1.75 µM | 2.76 µM | 2.28 µM | 2.06 µM | 1.94 µM
Oc1ccccc1-c1nn(CNc2ccc(Cl)cc2)c(=S)o1 | > 100 µM | 48.5 µM | > 100 µM | – | > 100 µM | 45.4 µM | > 100 µM | 64.5 µM | – | 74 µM | 0.263 µM | 0.633 µM | 0.511 µM | – | 23.5 µM | – | 20.7 µM | > 100 µM | 19.9 µM | 20 µM
